“And” between values parts separate entries of the source, which are not always exact repeats. Equal entries are not always repeated.
Experiments:
[1] = system: FtsA self-interaction; test: FRET (acceptor photobleaching) self-interaction of FtsA on supported lipid bilayers; format: binding, E. coli
Source text: To directly measure FtsA self-interaction in our fluorescence microscopy experiments, we established a FRET (Förster resonance energy transfer)-based assay using FtsA labelled with either Cy5 (acceptor) or Cy3 (donor). […] We then decided to use this approach to measure the degree of FtsA self-interaction on supported lipid membranes by quantifying the increase in donor fluorescence after photobleaching the acceptor fluorophore[30]–[32] (Fig. 3c–e and Fig. S3d). […] As a negative control, we also attached the Hexahistidine-SUMO-tag (His-SUMO) labelled with Cy5 and Cy3 to membranes with an increasing density of Tris-NTA lipids.
Equimolar concentrations of Cy3- and Cy5-labelled FtsA, supplemented with 20% unlabelled FtsA were used to study FRET and FRAP. Five pre-bleach frames were acquired, followed by acceptor photobleaching of a rectangular ROI with 40% 641 nm laser power and a dwell size of 1 µs/pixel, 75% overlapping lines. The recovery of the signal or the increase in donor intensity were measured with either two frames or one frame per second.
Bleaching the acceptor dye leads to an increase in the donor intensity, which can be used to quantify the Foerster Resonance energy transfer (FRET)[48]. FRET efficiency was quantified with E%=Ipost/Ipost+Ipre⋅100 , where Ipost is the intensity of the […] and Ipre is the […]. […] To extract the contribution of both processes, we adjusted a routine recently published by Gerganova et al.[33]. In short, the code provides the contribution of both modes of recovery by analysing the shape of the fluorescence recovery profile. […] Contribution of diffusion leads to a change of the slope of the outer borders of the bleached region (S4h right). Thus, by measuring the change of the slope of the border recovery, diffusion and simple on/off binding can be distinguished. We developed “FRAPdiff”, a graphical user interface, which uses the original fit routine by David Rutkowski. It can be used directly on.tiff movies with annotated bleach regions as ImageJ ROIs. In addition, we added optional bleach correction, user selectable projection axis (x or y), and optional mirroring of the recovery profiles, if bleaching was not symmetric. The original fit routine for estimating the recovery and diffusion dynamics can be found at https://github.com/davidmrutkowski/1DReflectingDiffusion. FRAPdiff is available at 10.5281/zenodo.6400639[49] under the GPLv3 open-source license.

[2] = Nucleotide effect on membrane binding of FtsA WT (normalized intensity); conditions: Fig. S3m
[3] = system: FtsZ filaments; test: FtsZ turnover / lifetime / off-rate, single-molecule tracking; format: biochemical, E. coli
Procedure: Single-molecule experiments were performed as described previously. In short, individual FtsZ proteins were imaged at single-molecule level by adding small amounts of Cy5-labelled FtsZ (200 pM) to a chamber with 0.2 or 0.4 µM FtsA and 1.25 μM Alexa488-FtsZ.
Single molecules of FtsA or FtsZ were tracked using the TrackMate plugin from ImageJ[43]. To obtain the residence time of FtsZ and FtsA, we performed a residence time analysis as described before[40],[47]. Shortly, single molecules were imaged at different acquisition rates (0.1–2 s) and the lifetime of the molecules was extracted from each data set. To account for photobleaching effect, the obtained lifetimes were plotted against the acquisition rate. […] Furthermore, we extracted the diffusion coefficient of FtsA single molecules at increasing concentrations. For this, we filtered the obtained data, by considering only trajectories which are present on the membrane for more than 0.4 s. […] Subsequently, the diffusion coefficient of FtsA molecules was estimated by fitting an MSD curve to each individual trajectory.

FtsA WT: wild-type E. coli actin-homologue FtsA, membrane anchor of FtsZ
FRET efficiency, mean ([1]; 0.1 µM FtsA + FtsN&Z): 15.28%
FRET efficiency, mean ([1]; 0.1 µM FtsA + FtsN): 8.5880% and 8.59%
FRET efficiency, mean ([1]; 0.1 µM FtsA + FtsZ): 7.8480% and 7.85%
FRET efficiency, mean ([1]; 0.1 µM FtsA alone): 8.1133%
FRET efficiency, mean ([1]; 0.2 µM FtsA + FtsN&Z): 17.79%
FRET efficiency, mean ([1]; 0.2 µM FtsA + FtsN): 12.6840% and 12.68%
FRET efficiency, mean ([1]; 0.2 µM FtsA + FtsZ): 12.5828% and 12.58%
FRET efficiency, mean ([1]; 0.2 µM FtsA alone): 16.69%
FRET efficiency, mean ([1]; 0.4 µM FtsA + FtsN&Z): 30.1680% and 30.17%
FRET efficiency, mean ([1]; 0.4 µM FtsA + FtsN): 27.2922% and 27.29%
FRET efficiency, mean ([1]; 0.4 µM FtsA + FtsZ): 17.7412% and 17.74%
FRET efficiency, mean ([1]; 0.4 µM FtsA alone): 22.27%
FRET efficiency ([1]; 0.4 µM FtsA with FtsNcyto and FtsZ, p-value 0.64): 30.2 ± 9.6%
FRET efficiency ([1]; 0.4 µM FtsA, p-value 6.12 × 10^−9): 22.1 ± 5.7%
FRET efficiency, mean ([1]; 0.8 µM FtsA + FtsN&Z): 34.2167% and 34.22%
FRET efficiency, mean ([1]; 0.8 µM FtsA + FtsN): 29.89%
FRET efficiency, mean ([1]; 0.8 µM FtsA + FtsZ): 27.1326% and 27.13%
FRET efficiency, mean ([1]; 0.8 µM FtsA alone): 31.17%
FRET efficiency ([1]; Fig. S3f, 0.2µM FtsA + N/Z, replicate 1): 17.94%
FRET efficiency ([1]; Fig. S3f, 0.2µM FtsA + N/Z, replicate 2): 16.55%
FRET efficiency ([1]; Fig. S3f, 0.2µM FtsA + N/Z, replicate 3): 18.88%
FRET efficiency ([1]; Fig. S3f, 0.2µM FtsA + N, replicate 1): 7.76%
FRET efficiency ([1]; Fig. S3f, 0.2µM FtsA + N, replicate 2): 9.38%
FRET efficiency ([1]; Fig. S3f, 0.2µM FtsA + N, replicate 3): 9.72%
FRET efficiency ([1]; Fig. S3f, 0.2µM FtsA + Z, replicate 1): 9.62%
FRET efficiency ([1]; Fig. S3f, 0.2µM FtsA + Z, replicate 2): 10.06%
FRET efficiency ([1]; Fig. S3f, 0.2µM FtsA + Z, replicate 3): 7.69%
FRET efficiency ([1]; Fig. S3f, 0.2µM FtsA, replicate 1): 12.55%
FRET efficiency ([1]; Fig. S3f, 0.2µM FtsA, replicate 2): 13.62%
FRET efficiency ([1]; Fig. S3f, 0.2µM FtsA, replicate 3): 23.13%
FRET efficiency ([1]; Fig. S3f, 0.4µM FtsA + N/Z, replicate 1): 16.64%
FRET efficiency ([1]; Fig. S3f, 0.4µM FtsA + N/Z, replicate 2): 39.69%
FRET efficiency ([1]; Fig. S3f, 0.4µM FtsA + N/Z, replicate 3): 38.87%
FRET efficiency ([1]; Fig. S3f, 0.4µM FtsA + N, replicate 1): 18.29%
FRET efficiency ([1]; Fig. S3f, 0.4µM FtsA + N, replicate 2): 25.77%
FRET efficiency ([1]; Fig. S3f, 0.4µM FtsA + N, replicate 3): 38.25%
FRET efficiency ([1]; Fig. S3f, 0.4µM FtsA + Z, replicate 1): 14.31%
FRET efficiency ([1]; Fig. S3f, 0.4µM FtsA + Z, replicate 2): 10.18%
FRET efficiency ([1]; Fig. S3f, 0.4µM FtsA + Z, replicate 3): 12.8%
FRET efficiency ([1]; Fig. S3f, 0.4µM FtsA, replicate 1): 20.04%
FRET efficiency ([1]; Fig. S3f, 0.4µM FtsA, replicate 2): 14.17%
FRET efficiency ([1]; Fig. S3f, 0.4µM FtsA, replicate 3): 22.75%
FRET efficiency ([1]; Fig. S3n, AMP PNP, 0.10 µM FtsA, replicate 1): 2.62%
FRET efficiency ([1]; Fig. S3n, AMP PNP, 0.10 µM FtsA, replicate 2): -0.01%
FRET efficiency ([1]; Fig. S3n, AMP PNP, 0.20 µM FtsA, replicate 1): 5.42%
FRET efficiency ([1]; Fig. S3n, AMP PNP, 0.20 µM FtsA, replicate 2): 10.85%
FRET efficiency ([1]; Fig. S3n, AMPPNP, 0.10 µM FtsA, summary value): 1.30%
FRET efficiency ([1]; Fig. S3n, AMPPNP, 0.20 µM FtsA, summary value): 8.14%
FRET efficiency ([1]; Fig. S3n, AMPPNP, 0.40 µM FtsA, summary value): 9.64%
FRET efficiency ([1]; Fig. S3n, AMPPNP, 0.80 µM FtsA, summary value): 10.07%
FRET efficiency ([1]; Fig. S3n, ATP, 0.10 µM FtsA, summary value): 8.36%
FRET efficiency ([1]; Fig. S3n, ATP, 0.20 µM FtsA, summary value): 16.69%
FRET efficiency ([1]; Fig. S3n, ATP, 0.40 µM FtsA, summary value): 22.27%
FRET efficiency ([1]; Fig. S3n, ATP, 0.80 µM FtsA, summary value): 31.17%
FRET efficiency ([1]; Fig. S3n, ATPgS, 0.10 µM FtsA, summary value): 4.97%
FRET efficiency ([1]; Fig. S3n, ATPgS, 0.20 µM FtsA, summary value): 9.83%
FRET efficiency ([1]; Fig. S3n, ATPgS, 0.40 µM FtsA, summary value): 14.66%
FRET efficiency ([1]; Fig. S3n, ATPgS, 0.80 µM FtsA, summary value): 21.79%
effect of FtsNcyto on FRET ([1]; presence of FtsNcyto): small FRET increase
Normalized intensity ([2]; AMP PNP, 0.10 µM FtsA, replicate 1): 0.07 a.u.
Normalized intensity ([2]; AMP PNP, 0.10 µM FtsA, replicate 2): 0.13 a.u.
Normalized intensity ([2]; AMPPNP, 0.20 µM FtsA, summary value): 0.62 a.u.
Normalized intensity ([2]; AMPPNP, 0.40 µM FtsA, summary value): 0.75 a.u.
Normalized intensity ([2]; AMPPNP, 0.80 µM FtsA, summary value): 1.00 a.u.
Normalized intensity ([2]; ATP, 0.10 µM FtsA, replicate 1): 0.20 a.u.
Normalized intensity ([2]; ATP, 0.10 µM FtsA, replicate 2): 0.48 a.u.
Normalized intensity ([2]; ATP, 0.10 µM FtsA, summary value): 0.37 a.u.
Normalized intensity ([2]; ATP, 0.20 µM FtsA, summary value): 0.67 a.u.
Normalized intensity ([2]; ATP, 0.40 µM FtsA, summary value): 0.82 a.u.
Normalized intensity ([2]; ATP, 0.80 µM FtsA, summary value): 0.95 a.u.
Normalized intensity ([2]; ATPgS, 0.20 µM FtsA, summary value): 0.20 a.u.
Normalized intensity ([2]; ATPgS, 0.40 µM FtsA, summary value): 0.21 a.u.
Normalized intensity ([2]; ATPgS, 0.80 µM FtsA, summary value): 0.65 a.u.

B1: FtsA R286W (protein)
chain: MIKATDRKLVVGLEIGTAKVAALVGEVLPDGMVNIIGVGSCPSRGMDKGGVNDLESVVKCVQRAIDQAELMADCQISSVYLALSGKHISCQNEIGMVPISEEEVTQEDVENVVHTAKSVRVRDEHRVLHVIPQEYAIDYQEGIKNPVGLSGVRMQAKVHLITCHNDMAKNIVKAVERCGLKVDQLIFAGLASSYSVLTEDERELGVCVVDIGGGTMDIAVYTGGALRHTKVIPYAGNVVTSDIAYAFGTPPSDAEAIKVRHGCALGSIVGKDESVEVPSVGGRPPWSLQRQTLAEVIEPRYTELLNLVNEEILQLQEKLRQQGVKHHLAAGIVLTGGAAQIEGLAACAQRVFHTQVRIGAPLNITGLTDYAQEPYYSTAVGLLHYGKESHLNGEAEVEKRVTASVGSWIKRLNSWLRKEF
modifications: Cy3 or Cy5 at the N-terminus in the labelled form (labelled CLEPTGG peptide conjugated to the 5xGly tag by sortagging); unlabelled protein also used; left off: TwinStrep-SUMO, N-terminal, cleaved | 5x
FtsZ turnover compared to the wild-type protein [3]: slightly decreased

— PMC9098913, “In vitro reconstitution of Escherichia coli divisome activation” (Nature Communications, 2022)
